Source: ChEMBL document CHEMBL3868582, “Discovery, pharmacology, and clinical profile of omadacycline, a novel aminomethylcycline antibiotic” (Bioorg Med Chem, 2016)
Converted amounts (≈) assume the structure as drawn.

Assays:
[1] = Cmax in human at 300 mg, po; type: ADME; design: dose 300 mg, route oral; details: in vivo
[2] = Cmax in human at 100 mg, iv administered as infusion; type: ADME, organism-based; design: dose 100 mg, route intravenous; details: in vivo
[3] = Systemic clearance in human at 100 mg, iv or 300 mg, po; type: ADME, organism-based; details: in vivo
[4] = Oral bioavailability in human 300 mg; type: ADME, organism-based; details: in vivo
[5] = AUC(0 to 24 hrs) in human at 300 mg, po; type: ADME; design: time < 24 hr, dose 300 mg, route oral; details: in vivo
[6] = Protein binding in human plasma at 0.1 to 10 ug/ml; type: ADME, cell-free; details: read-out: PPB (converted)
[7] = Terminal half life in human at 100 mg, iv or 300 mg, po; details: in vivo
[8] = Volume of distribution in human at 100 mg, iv or 300 mg, po; type: ADME, organism-based; details: in vivo
[9] = AUC(0 to 24 hrs) in human at 100 mg, iv; type: ADME; design: dose 100 mg, time < 24 hr, route intravenous; details: in vivo
OATP1B3 = OATP1B3 (Homo sapiens, UniProt Q9NPD5); assay: Inhibition of OATP1B3 (unknown origin) in HEK293 cells at 100 uM; type: cell-based; details: HEK293 cells expressing OATP1B3
[10] = Drug excretion in human urine at 36.6 uCi, po administered as single dose; type: ADME, organism-based; details: in vivo
OAT1 (SLC22A6) = OAT1 (SLC22A6) (Homo sapiens, UniProt Q4U2R8); assay: Inhibition of human OAT1 expressed in HEK293 cells at 25 uM; type: cell-based
OATP1B1 = OATP1B1 (Homo sapiens, UniProt Q9Y6L6); assay: Inhibition of OATP1B1 (unknown origin) in HEK293 cells at 100 uM; type: cell-based; details: HEK293 cells expressing OATP1B1
[11] = Drug excretion in human feces at 36.6 uCi, po administered as single dose; type: ADME, organism-based; details: in vivo
[12] = Fraction absorbed in human urine at 36.6 uCi, po administered as single dose; type: ADME, organism-based; details: in vivo
Streptococcus pneumoniae [13] = assay: Antibacterial activity against Streptococcus pneumoniae PBS1399; type: functional
Streptococcus pneumoniae [14] = assay: Antibacterial activity against Streptococcus pneumoniae PBS1399 infected in mouse assessed as protection against bacterial infection by measuring mouse survival administered intravenously as single dose after 2 hrs of infection measured on day 7; type: functional; details: PBS1399, iv, read-out: PD50
Haemophilus influenzae [15] = assay: Antibacterial activity against Haemophilus influenzae PBS981; type: functional
Haemophilus influenzae [16] = assay: Antibacterial activity against Haemophilus influenzae PBS981 infected in CD-1 mouse assessed as reduction in bacterial load in lungs administered intravenously as single dose after 2 hrs of infection measured after 24 hrs post treatment; type: functional; details: PBS981, iv
Clostridioides difficile = assay: Antibacterial activity against Clostridium difficile infected in hamster model assessed as median survival time; type: functional
[17] = AUC(0 to 24 hrs) in human at 100 mg, po q12h; type: ADME, organism-based; design: time < 24 hr, dose 100 mg, route oral; details: in vivo
[18] = AUC(0 to 24 hrs) in human at 1.5 mg/kg, iv q24h; type: ADME, organism-based; design: dose 1.5 mg/kg, time < 24 hr, route intravenous; details: in vivo
[19] = Oral bioavailability in human at 100 mg administered q12h; type: ADME, organism-based; details: in vivo
[20] = Cmax in human at 1.5 mg/kg, iv q24h; type: ADME, organism-based; design: dose 1.5 mg/kg, route intravenous; details: in vivo
[21] = Protein binding in human plasma; type: ADME, cell-free; details: read-out: PPB
[22] = Terminal half life in human at 1.5 mg/kg, iv q24h or 100 mg, po q12h; type: ADME, organism-based; details: in vivo, read-out: beta t1/2
[23] = Systemic clearance in human at 1.5 mg/kg, iv q24h or 100 mg, po q12h; type: ADME, organism-based; details: in vivo
[24] = Cmax in human at 100 mg, po q12h; type: ADME, organism-based; design: dose 100 mg, route oral; details: in vivo
[25] = Half life in human at 300 mg, po; details: in vivo
[26] = Tmax in human at 300 mg, po; type: ADME; details: in vivo
[27] = Systemic clearance in human at 50 mg, iv q12h; type: ADME, organism-based; details: in vivo
Staphylococcus aureus [28] = assay: Antibacterial activity against Staphylococcus aureus USA300; type: functional
Staphylococcus aureus [29] = assay: Antibacterial activity against Staphylococcus aureus USA400; type: functional
Staphylococcus aureus [30] = assay: Antibacterial activity against Staphylococcus aureus USA300 in mouse thigh wound infection model assessed as reduction in bacterial load administered intravenously as single dose after 2 hrs of infection measured after 24 hrs post treatment; type: functional; details: USA300, iv
[31] = AUC(0 to 24 hrs) in human at 50 mg, iv q12h; type: ADME, organism-based; design: dose 50 mg, time < 24 hr, route intravenous; details: in vivo
Staphylococcus aureus [32] = assay: Antibacterial activity against Staphylococcus aureus USA400 in mouse thigh wound infection model assessed as reduction in bacterial load administered intravenously as single dose after 2 hrs of infection measured after 24 hrs post treatment; type: functional; details: USA400, iv
[33] = Terminal half life in human at 50 mg, iv q12h; type: ADME, organism-based; details: in vivo, read-out: beta t1/2
[34] = Cmax in human at 50 mg, iv q12h; type: ADME, organism-based; design: dose 50 mg, route intravenous; details: in vivo

Sequence of OATP1B1 (Q9Y6L6 whole entry): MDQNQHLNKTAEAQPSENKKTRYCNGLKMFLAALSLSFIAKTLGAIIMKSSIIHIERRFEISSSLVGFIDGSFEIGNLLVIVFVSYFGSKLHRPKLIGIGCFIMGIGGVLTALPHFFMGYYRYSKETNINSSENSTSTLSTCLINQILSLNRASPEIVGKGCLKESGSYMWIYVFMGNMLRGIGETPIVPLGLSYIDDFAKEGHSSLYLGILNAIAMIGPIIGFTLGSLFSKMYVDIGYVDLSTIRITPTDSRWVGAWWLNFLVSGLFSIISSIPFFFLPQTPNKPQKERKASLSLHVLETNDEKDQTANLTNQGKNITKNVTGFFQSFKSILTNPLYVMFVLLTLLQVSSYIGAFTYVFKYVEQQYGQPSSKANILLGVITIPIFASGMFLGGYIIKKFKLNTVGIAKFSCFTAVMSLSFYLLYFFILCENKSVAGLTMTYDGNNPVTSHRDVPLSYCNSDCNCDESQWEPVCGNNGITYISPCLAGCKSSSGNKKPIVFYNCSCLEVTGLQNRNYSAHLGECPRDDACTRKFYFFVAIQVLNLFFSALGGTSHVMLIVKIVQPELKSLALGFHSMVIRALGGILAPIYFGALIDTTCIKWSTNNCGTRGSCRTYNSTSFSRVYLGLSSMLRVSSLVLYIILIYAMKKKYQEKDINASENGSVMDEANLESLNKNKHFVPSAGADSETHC
Sequence of OAT1 (SLC22A6) (Q4U2R8 whole entry): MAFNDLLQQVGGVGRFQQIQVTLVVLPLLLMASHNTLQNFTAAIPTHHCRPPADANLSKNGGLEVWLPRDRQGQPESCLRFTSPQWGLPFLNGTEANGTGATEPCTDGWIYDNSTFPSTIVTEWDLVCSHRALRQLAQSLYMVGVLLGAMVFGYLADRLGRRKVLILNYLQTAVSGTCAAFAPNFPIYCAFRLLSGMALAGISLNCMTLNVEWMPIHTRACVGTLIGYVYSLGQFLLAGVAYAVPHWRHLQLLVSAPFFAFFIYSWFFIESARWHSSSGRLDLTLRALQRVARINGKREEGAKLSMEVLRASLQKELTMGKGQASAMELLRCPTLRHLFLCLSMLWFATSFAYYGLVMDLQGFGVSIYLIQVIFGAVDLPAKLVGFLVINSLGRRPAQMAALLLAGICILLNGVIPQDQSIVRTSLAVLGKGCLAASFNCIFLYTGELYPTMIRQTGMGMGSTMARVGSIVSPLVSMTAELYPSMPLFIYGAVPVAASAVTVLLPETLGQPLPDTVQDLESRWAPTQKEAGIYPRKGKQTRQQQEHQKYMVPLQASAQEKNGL
Sequence of OATP1B3 (Q9NPD5 whole entry): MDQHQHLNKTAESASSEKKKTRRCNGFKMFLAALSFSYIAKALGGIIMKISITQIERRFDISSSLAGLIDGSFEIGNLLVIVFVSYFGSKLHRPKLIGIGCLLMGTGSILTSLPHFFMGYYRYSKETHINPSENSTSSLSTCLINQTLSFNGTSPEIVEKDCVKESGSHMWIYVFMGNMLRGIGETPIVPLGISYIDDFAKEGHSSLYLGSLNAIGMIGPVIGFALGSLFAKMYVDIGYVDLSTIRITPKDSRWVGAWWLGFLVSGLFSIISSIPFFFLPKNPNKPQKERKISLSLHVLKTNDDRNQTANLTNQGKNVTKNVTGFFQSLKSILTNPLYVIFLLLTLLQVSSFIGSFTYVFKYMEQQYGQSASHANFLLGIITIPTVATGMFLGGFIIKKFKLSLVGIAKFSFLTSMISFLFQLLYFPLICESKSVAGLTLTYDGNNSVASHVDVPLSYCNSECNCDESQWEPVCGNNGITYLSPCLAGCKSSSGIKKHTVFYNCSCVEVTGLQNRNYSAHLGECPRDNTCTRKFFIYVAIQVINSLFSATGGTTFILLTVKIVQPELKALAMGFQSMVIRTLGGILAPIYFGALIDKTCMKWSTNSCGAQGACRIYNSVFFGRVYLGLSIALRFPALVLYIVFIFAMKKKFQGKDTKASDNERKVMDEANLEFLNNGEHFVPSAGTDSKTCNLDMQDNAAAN

Compound: CN(C)c1cc(CNCC(C)(C)C)c(O)c2c1C[C@H]1C[C@H]3[C@H](N(C)C)C(O)=C(C(N)=O)C(=O)[C@@]3(O)C(O)=C1C2=O.Cl
- Cmax [1]: 700 ng/mL
- Cmax [2]: 1800 ng/mL
- CL [3]: 17.1 L/h
- bioavailability [4]: 34.5%
- AUC(0-t) at 24 h [5]: 5900 ng·h/mL
- fraction unbound [6]: 0.79
- half-life [7]: 17 h
- Vd [8]: 333 to 640 L
- AUC [9]: 8800 ng·h/mL

Compound: CN(C)c1cc([14CH2]NCC(C)(C)C)c(O)c2c1C[C@H]1C[C@H]3[C@H](N(C)C)C(O)=C(C(N)=O)C(=O)[C@@]3(O)C(O)=C1C2=O
- inhibition at 100 µM (OATP1B3): 10.1%
- Drug excretion [10]: 14.4 %ID
- inhibition at 25 µM (OAT1 (SLC22A6)): 32.1%
- inhibition at 100 µM (OATP1B1): 10.1%
- Drug excretion [11]: 81.1 %ID
- Fabs [12]: 40%

Compound: CN(C)c1cc([14CH2]NCC(C)(C)C)c(O)c2c1C[C@H]1C[C@H]3[C@@H](N(C)C)C(O)=C(C(N)=O)C(=O)[C@@]3(O)C(O)=C1C2=O
- Drug excretion [10]: 14.4 %ID

Compound: CC[C@H]1OC(=O)[C@H](C)[C@@H](O[C@H]2C[C@@](C)(OC)[C@@H](O)[C@H](C)O2)[C@H](C)[C@@H](O[C@@H]2O[C@H](C)C[C@H](N(C)C)[C@H]2O)[C@](C)(O)C[C@@H](C)CN(C)[C@H](C)[C@@H](O)[C@]1(C)O [AZITHROMYCIN]
- MIC (Streptococcus pneumoniae [13]): 0.03 µg/mL (≈ 0.0401 µM)
- ED50 (Streptococcus pneumoniae [14]): 3.31 mg/kg

Compound: CO/N=C(\C(=O)N[C@@H]1C(=O)N2C(C(=O)O)=C(CSc3nc(=O)c(O)nn3C)CS[C@H]12)c1csc(N)n1 [CEFTRIAXONE]
- MIC (Streptococcus pneumoniae [13]): 0.015 µg/mL (≈ 0.027 µM)
- ED50 (Streptococcus pneumoniae [14]): 0.37 mg/kg
- MIC (Haemophilus influenzae [15]): < 0.06 µg/mL
- ED50 (Haemophilus influenzae [16]): 0.1 mg/kg

Compound: O=C(O)c1cn(C2CC2)c2cc(N3CCNCC3)c(F)cc2c1=O [CIPROFLOXACIN]
- MIC (Haemophilus influenzae [15]): < 0.06 µg/mL
- ED50 (Haemophilus influenzae [16]): 1.16 mg/kg

Compound: CCC[C@@H]1C[C@@H](C(=O)N[C@@H]([C@H]2O[C@H](SC)[C@H](O)[C@@H](O)[C@H]2O)[C@H](C)Cl)N(C)C1 [CLINDAMYCIN]
- MST (Clostridioides difficile): 4 days

Compound: CCCCCCCCCC(=O)N[C@@H](Cc1c[nH]c2ccccc12)C(=O)N[C@@H](CC(N)=O)C(=O)N[C@@H](CC(=O)O)C(=O)N[C@@H]1C(=O)NCC(=O)N[C@@H](CCCN)C(=O)N[C@@H](CC(=O)O)C(=O)N[C@H](C)C(=O)N[C@@H](CC(=O)O)C(=O)NCC(=O)N[C@H](CO)C(=O)N[C@@H]([C@H](C)CC(=O)O)C(=O)N[C@@H](CC(=O)c2ccccc2N)C(=O)O[C@@H]1C [DAPTOMYCIN]
- MIC (Streptococcus pneumoniae [13]): 0.25 µg/mL (≈ 0.154 µM)
- ED50 (Streptococcus pneumoniae [14]): > 100 mg/kg

Compound: C[C@H]1c2cccc(O)c2C(=O)C2=C(O)[C@]3(O)C(=O)C(C(N)=O)=C(O)[C@@H](N(C)C)[C@@H]3[C@@H](O)[C@@H]21.O [DOXYCYCLINE]
- MIC (Streptococcus pneumoniae [13]): 0.125 µg/mL
- ED50 (Streptococcus pneumoniae [14]): 10.3 mg/kg

Compound: CN(C)[C@@H]1C(O)=C(C(N)=O)C(=O)[C@@]2(O)C(O)=C3C(=O)c4c(O)c(NC(=O)CN5CCCC5)cc(F)c4C[C@H]3C[C@@H]12 [ERAVACYCLINE]
- AUC at 24 h [17]: 3100 ng·h/mL
- AUC at 24 h [18]: 7900 ng·h/mL
- bioavailability [19]: 28%
- Cmax [20]: 1900 ng/mL
- fraction unbound [21]: 0.13 to 0.21
- half-life [22]: 10 to 14 h
- clearance [23]: 297 mL/min
- Cmax [24]: 160 ng/mL

Compound: C[C@H]1COc2c(N3CCN(C)CC3)c(F)cc3c(=O)c(C(=O)O)cn1c23.C[C@H]1COc2c(N3CCN(C)CC3)c(F)cc3c(=O)c(C(=O)O)cn1c23.O [LEVOFLOXACIN]
- ED50 (Streptococcus pneumoniae [14]): > 18 mg/kg
- MIC (Haemophilus influenzae [15]): < 0.06 µg/mL
- ED50 (Haemophilus influenzae [16]): 2.4 mg/kg

Compound: CC(=O)NC[C@H]1CN(c2ccc(N3CCOCC3)c(F)c2)C(=O)O1 [LINEZOLID]
- ED50 (Streptococcus pneumoniae [14]): 38.8 mg/kg

Compound: CN(C)c1ccc(O)c2c1C[C@H]1C[C@H]3[C@H](N(C)C)C(O)=C(C(N)=O)C(=O)[C@@]3(O)C(O)=C1C2=O [MINOCYCLINE]
- MIC (Streptococcus pneumoniae [13]): 0.25 µg/mL (≈ 0.546 µM)
- ED50 (Streptococcus pneumoniae [14]): 3.44 mg/kg

Compound: CN(C)c1cc(CNCC(C)(C)C)c(O)c2c1C[C@H]1C[C@H]3[C@H](N(C)C)C(O)=C(C(N)=O)C(=O)[C@@]3(O)C(O)=C1C2=O.Cc1ccc(S(=O)(=O)O)cc1 [OMADACYCLINE TOSYLATE]
- Cmax [1]: 540 ng/mL
- half-life [25]: 17 h
- bioavailability [4]: 34.5%
- Tmax [26]: 3 h

Compound: CN(C)c1cc(NC(=O)CNC(C)(C)C)c(O)c2c1C[C@H]1C[C@H]3[C@H](N(C)C)C(O)=C(C(N)=O)C(=O)[C@@]3(O)C(O)=C1C2=O [TIGECYCLINE]
- CL [27]: 23.8 L/h
- MIC (Streptococcus pneumoniae [13]): 0.125 µg/mL (≈ 0.213 µM)
- MIC (Staphylococcus aureus [28]): 0.125 µg/mL (≈ 0.213 µM)
- fraction unbound [21]: 0.13 to 0.31
- MIC (Staphylococcus aureus [29]): 0.06 µg/mL (≈ 0.102 µM)
- ED50 (Staphylococcus aureus [30]): 0.45 mg/kg
- ED50 (Streptococcus pneumoniae [14]): 0.91 mg/kg
- AUC [31]: 4700 ng·h/mL
- ED50 (Staphylococcus aureus [32]): 0.46 mg/kg
- half-life [33]: 37 to 66 h
- MIC (Haemophilus influenzae [15]): 0.25 µg/mL (≈ 0.427 µM)
- ED50 (Haemophilus influenzae [16]): 2.31 mg/kg
- Cmax [34]: 870 ng/mL

Compound: CN[C@H](CC(C)C)C(=O)N[C@H]1C(=O)N[C@@H](CC(N)=O)C(=O)N[C@H]2C(=O)N[C@H]3C(=O)N[C@H](C(=O)N[C@H](C(=O)O)c4cc(O)cc(O)c4-c4cc3ccc4O)[C@H](O)c3ccc(c(Cl)c3)Oc3cc2cc(c3O[C@@H]2O[C@H](CO)[C@@H](O)[C@H](O)[C@H]2O[C@H]2C[C@](C)(N)[C@H](O)[C@H](C)O2)Oc2ccc(cc2Cl)[C@H]1O [VANCOMYCIN]
- MIC (Streptococcus pneumoniae [13]): 0.5 µg/mL (≈ 0.345 µM)
- MST (Clostridioides difficile): 2 days
- ED50 (Streptococcus pneumoniae [14]): 3.3 mg/kg
